Laboratory results as given in patent publication US12435044B2, “Pyridazinone herbicides and pyridazinone intermediates used to prepare a herbicide” (FMC Corporation, priority 2018, dated 2025).

Assays:
Type in all cases: in vivo
[1] = test system: field poppy (Papaver rhoeas); experiment: Test C postemergence greenhouse test; settings: scale 0 to 100
Source text: (§1) Seeds of plant species selected from blackgrass (Alopecurus myosuroides), ryegrass, Italian (Lolium multiflorum), wheat, winter (winter wheat, Triticum aestivum), galium (catchweed bedstraw, Galium aparine), corn (Zea mays), crabgrass, large (Digitaria sanguinalis), foxtail, giant (Setaria faberii), johnsongrass (Sorghum halepense), lambsquarters (Chenopodium album), morningglory (Ipomoea coccinea), nutsedge, yellow (Cyperus esculentus), pigweed (Amaranthus retroflexus), ragweed (common ragweed, Ambrosia elatior), soybean (Glycine max), barnyardgrass (Echinochloa crus-galli), oilseed rape (Brassica napus), waterhemp (common waterhemp, Amaranthus rudis), pigweed, palmer (Amaranthus palmeri), kochia (Kochia scoparia), oat, wild (Avena fatua), surinam grass (Brachiaria decumbens), windgrass (Apera spica-venti), poinsettia, wild (Euphorbia heterophylla) and velvetleaf (Abutilon theophrasti) were planted into a silt loam soil and treated preemergence with test chemicals formulated in a non-phytotoxic solvent mixture which included a surfactant.
(§2) At the same time, plants selected from these crop and weed species and also chickweed (common chickweed, Stellaria media), buckwheat, wild (Polygonum convolvulus), mustard, wild (Sinapis arvensis), field poppy (Papaver rhoeas), field violet (Viola arvensis), nightshade (eastern black nightshade, Solanum ptycanthum), speedwell (bird's-eye speedwell, Veronica persica), horseweed (Conyza canadensis), cutleaf geranium (Geranium dissectum), and Canada thistle (Cirsium arvense) were planted in pots containing Redi-Earth® planting medium (Scotts Company, 14111 Scottslawn Road, Marysville, Ohio 43041) comprising spaghnum peat moss, vermiculite, wetting agent and starter nutrients and treated with postemergence applications of test chemicals formulated in the same manner. Plants ranged in height from 2 to 18 cm (1- to 4-leaf stage) for postemergence treatments. Treated plants and controls were maintained in a greenhouse for 13 to 21 d, after which time all species were compared to controls and visually evaluated. Plant response ratings, summarized in Table C-1 (postemergence) and C-2 (preemergence), are based on a scale of 0 to 100 where 0 is no effect and 100 is complete control. A dash (-) response means no test result.

[2] = test system: chickweed (common chickweed, Stellaria media); experiment: Test C postemergence greenhouse test; settings: scale 0 to 100
Source text: as §1, §2

[3] = test system: barnyardgrass (Echinochloa crus-galli); experiment: Test B flooded paddy test; settings: Flood, 250 g ai/ha
Description: (§3) Plant species in the flooded paddy test selected from rice (Oryza sativa), sedge, umbrella (small-flower umbrella sedge, Cyperus difformis), duck salad (Heteranthera limosa) and barnyardgrass (Echinochloa crus-galli) were grown to the 2-leaf stage for testing. At time of treatment, test pots were flooded to 3 cm above the soil surface, treated by application of test compounds directly to the paddy water, and then maintained at that water depth for the duration of the test. Treated plants and controls were maintained in a greenhouse for 13 to 15 d, after which time all species were compared to controls and visually evaluated. Plant response ratings, summarized in Table B, are based on a scale of 0 to 100 where 0 is no effect and 100 is complete control. A dash (-) response means no test result.

rice (Oryza sativa) = experiment: Test B flooded paddy test; settings: Flood, 250 g ai/ha
Description: as §3

[4] = test system: sedge, umbrella (small-flower umbrella sedge, Cyperus difformis); experiment: Test B flooded paddy test; settings: Flood, 250 g ai/ha
Description: as §3

[5] = test system: duck salad (Heteranthera limosa); experiment: Test B flooded paddy test; settings: Flood, 250 g ai/ha, Ducksalad
Description: as §3

corn (Zea mays) = experiment: Test A postemergence greenhouse test
Source text: (§4) Seeds of plant species selected from barnyardgrass (Echinochloa crus-galli), kochia (Kochia scoparia), ragweed (common ragweed, Ambrosia elatior), ryegrass, Italian (Lolium multiflorum), foxtail, giant (Setaria faberii), foxtail, green (Setaria viridis) and pigweed (Amaranthus retroflexus) were planted into a blend of loam soil and sand and treated preemergence with a directed soil spray using test chemicals formulated in a non-phytotoxic solvent mixture which included a surfactant.
(§5) At the same time, plants selected from these weed species and also wheat (Triticum aestivum), corn (Zea mays), blackgrass (Alopecurus myosuroides) and galium (catchweed bedstraw, Galium aparine) were planted in pots containing the same blend of loam soil and sand and treated with postemergence applications of test chemicals formulated in the same manner. Plants ranged in height from 2 to 10 cm and were in the one- to two-leaf stage for the postemergence treatment. Treated plants and untreated controls were maintained in a greenhouse for approximately 10 d, after which time all treated plants were compared to untreated controls and visually evaluated for injury. Plant response ratings, summarized in Table A, are based on a 0 to 100 scale where 0 is no effect and 100 is complete control. A dash (-) response means no test result.

[6] = test system: galium (catchweed bedstraw, Galium aparine); experiment: Test A postemergence greenhouse test
Source text: as §4, §5

[7] = test system: wheat (Triticum aestivum); experiment: Test A postemergence greenhouse test
Source text: as §4, §5

[8] = test system: blackgrass (Alopecurus myosuroides); experiment: Test A postemergence greenhouse test
Source text: as §4, §5

Row | Compound | Plant response rating, Field Poppy ([1]; 16 g ai/ha) | Plant response rating, Field Poppy ([1]; 31 g ai/ha) | Plant response rating, Field Poppy ([1]; 62 g ai/ha) | Plant response rating, Field Poppy ([1]; 125 g ai/ha) | Plant response rating, Chickweed ([2]; 16 g ai/ha) | Plant response rating, Chickweed ([2]; 31 g ai/ha) | Plant response rating, Chickweed ([2]; 62 g ai/ha) | Plant response rating, Chickweed ([2]; 125 g ai/ha) | Plant response rating (0 to 100 scale) [3] | Plant response rating (0 to 100 scale) (rice (Oryza sativa)) | Plant response rating (0 to 100 scale) [4] | Plant response rating (0 to 100 scale) [5] | Plant response rating (0 to 100 scale) (corn (Zea mays); 31 g ai/ha) | Plant response rating (0 to 100 scale) (corn (Zea mays); 125 g ai/ha) | Plant response rating (0 to 100 scale) ([6]; 31 g ai/ha) | Plant response rating (0 to 100 scale) ([6]; 125 g ai/ha) | Plant response rating (0 to 100 scale) ([7]; 31 g ai/ha) | Plant response rating (0 to 100 scale) ([7]; 125 g ai/ha) | Plant response rating (0 to 100 scale) ([8]; 31 g ai/ha) | Plant response rating (0 to 100 scale) ([8]; 125 g ai/ha)
1 | Cc1ccc2ccc(Cl)cc2c1-c1c(O)c(Cl)nn(C)c1=O [Cpd. No. 22] | 75 | 75 | 75 | 100 | 100 | 98 | 100 | 100 | 40 | 60 | 85 | 90 | 0 | 10 | 100 | 100 | 100 | 100 | 70 | 100
2 | Cc1ccc2ccc(F)cc2c1-c1c(O)c(Cl)nn(C)c1=O [Cpd. No. 21] | 60 | 70 | 75 | 98 | – | – | – | – | 80 | 35 | 90 | 90 | 10 | 20 | 100 | 100 | 50 | 80 | 50 | 70
3 | Cc1ccc2ccc(C)c(-c3c(O)c(Cl)nn(C)c3=O)c2c1 [Cpd. No. 20, 6-chloro-4-(2,7-dimethyl-1-naphthalenyl)-5-hydroxy-2-methyl-3(2H)-pyridazinone] | – | – | – | – | 95 | 95 | 95 | 98 | 25 | 15 | 90 | 100 | 30 | 30 | 90 | 100 | 20 | 30 | 0 | 60
4 | Cc1cc(Cl)c2ccccc2c1-c1c(O)c(Cl)nn(C)c1=O [Cpd. No. 65] | 80 | 98 | 98 | 100 | 98 | 95 | 95 | 98 | 40 | 20 | 90 | 80 | 30 | 50 | 100 | 100 | 80 | 90 | 90 | 100
